Three compounds from ChEMBL document CHEMBL5303573, “Mapping human microbiome drug metabolism by gut bacteria and their genes” (Nature, 2019) can be followed below.

A short description of series [1]: The drug is tested on Clostridium sporogenes strain: ATCC15579 for biotransformation. The drug concentrations were measured before and after a 12-h incubation by liquid-chromatography-coupled mass spectrometry (LC–MS). Conditions: 2 µM.
Series [2] can be described thus: The drug is tested on Enterobacter cancerogenus strain: ATCC35316 for biotransformation. The drug concentrations were measured before and after a 12-h incubation by liquid-chromatography-coupled mass spectrometry (LC–MS). Conditions: 2 µM.
A short description of series [3]: The drug is tested on Bacteroides sp. WH2 strain: WH2 for biotransformation. The drug concentrations were measured before and after a 12-h incubation by liquid-chromatography-coupled mass spectrometry (LC–MS). The following applies: bacteroides sp. wh2, 12 h, 2 µM.
A short description of series [4]: The drug is tested on Bacteroides fragilis strain: HMW610 for biotransformation. The drug concentrations were measured before and after a 12-h incubation by liquid-chromatography-coupled mass spectrometry (LC–MS). The following applies: 2 µM.
For series [5] the following is noted: bacteroides thetaiotaomicron, 12 h, 2 µM.
Description: The drug is tested on Bacteroides thetaiotaomicron strain: 3731 for biotransformation. The drug concentrations were measured before and after a 12-h incubation by liquid-chromatography-coupled mass spectrometry (LC–MS)
The conditions of series [6]: roseburia intestinalis, 12 h, 2 µM.
Description: The drug is tested on Roseburia intestinalis strain: L1-82 for biotransformation. The drug concentrations were measured before and after a 12-h incubation by liquid-chromatography-coupled mass spectrometry (LC–MS)
Series [7] can be described thus: The drug is tested on Ruminococcus torques strain: ATCC27756 for biotransformation. The drug concentrations were measured before and after a 12-h incubation by liquid-chromatography-coupled mass spectrometry (LC–MS). Type of series: ADME. Also noted: dose 2 uM, timepoint 0 vs 12 hours. Conditions: 2 µM.
A short description of series [8]: The drug is tested on Anaerotruncus colihominis strain: DSM17241 for biotransformation. The drug concentrations were measured before and after a 12-h incubation by liquid-chromatography-coupled mass spectrometry (LC–MS). The following applies: 2 µM.
A short description of series [9]: The drug is tested on Edwardsiella tarda strain: ATCC23685 for biotransformation. The drug concentrations were measured before and after a 12-h incubation by liquid-chromatography-coupled mass spectrometry (LC–MS). The following applies: 2 µM.
A short description of series [10]: The drug is tested on Ruminococcus lactaris strain: ATCC29176 for biotransformation. The drug concentrations were measured before and after a 12-h incubation by liquid-chromatography-coupled mass spectrometry (LC–MS). Conditions: 2 µM.
A short description of series [11]: The drug is tested on Bacteroides xylanisolvens strain: DSM18836 for biotransformation. The drug concentrations were measured before and after a 12-h incubation by liquid-chromatography-coupled mass spectrometry (LC–MS). The following applies: 2 µM.
Series [12] in a line: The drug is tested on Blautia luti strain: DSM14534 for biotransformation. The drug concentrations were measured before and after a 12-h incubation by liquid-chromatography-coupled mass spectrometry (LC–MS). In kind it is ADME. Also noted: dose 2 uM, timepoint 0 vs 12 hours. The following applies: 2 µM.
Series [13] is described as follows: The drug is tested on Dorea formicigenerans strain: ATCC27755 for biotransformation. The drug concentrations were measured before and after a 12-h incubation by liquid-chromatography-coupled mass spectrometry (LC–MS). The following applies: 2 µM.
Series [14] in a line: The drug is tested on Ruminococcus gnavus strain: ATCC29149 for biotransformation. The drug concentrations were measured before and after a 12-h incubation by liquid-chromatography-coupled mass spectrometry (LC–MS). The following applies: mediterraneibacter gnavus, 2 µM.
For series [15] the following is noted: bacteroides intestinalis, 12 h, 2 µM.
Description: The drug is tested on Bacteroides intestinalis strain: DSM17393 for biotransformation. The drug concentrations were measured before and after a 12-h incubation by liquid-chromatography-coupled mass spectrometry (LC–MS)
Series [16] in a line: The drug is tested on Bifidobacterium breve strain: DSM20213 for biotransformation. The drug concentrations were measured before and after a 12-h incubation by liquid-chromatography-coupled mass spectrometry (LC–MS). Conditions: 2 µM.
The nature of series [17]: The drug is tested on Eubacterium ventriosum strain: ATCC27560 for biotransformation. The drug concentrations were measured before and after a 12-h incubation by liquid-chromatography-coupled mass spectrometry (LC–MS). In kind it is ADME. Also noted: dose 2 uM, timepoint 0 vs 12 hours. The following applies: 2 µM.
Series [18] can be described thus: The drug is tested on Bacteroides fragilis strain: HMW615 for biotransformation. The drug concentrations were measured before and after a 12-h incubation by liquid-chromatography-coupled mass spectrometry (LC–MS). The following applies: 2 µM.
For series [19] the following is noted: limosilactobacillus reuteri cf48-3a, 12 h, 2 µM.
Description: The drug is tested on Lactobacillus reuteri CF48-3A strain: BEI HM-102 for biotransformation. The drug concentrations were measured before and after a 12-h incubation by liquid-chromatography-coupled mass spectrometry (LC–MS)

For the compound `COc1ccc2c3c1O[C@H]1C[C@@H](O)C=C[C@@]31CCN(C)C2` [GALANTAMINE], the “Bacterial Biotransformation” value was “Compound NOT metabolized” in series [1]; “Compound NOT metabolized” in series [2]; “Compound metabolized” in series [3]; “Compound metabolized” in series [4]; “Compound metabolized” in series [5]; “Compound NOT metabolized” in [6]. Moreover, the “Bacterial Biotransformation” value in [7] is recorded as “Compound NOT metabolized”; in series [8], “Compound NOT metabolized”; in series [9], “Compound NOT metabolized”; in series [10] it was “Compound NOT metabolized”; in series [11], “Compound metabolized”; in series [12], “Compound NOT metabolized”. Moreover, the “Bacterial Biotransformation” value is reported as “Compound NOT metabolized” in series [13]; “Compound NOT metabolized” in series [14]; “Compound NOT metabolized” in series [15]; “Compound NOT metabolized” in [16]; “Compound NOT metabolized” in [17]; “Compound metabolized” in series [18].

Regarding `Nc1nc(N)nc(-c2cc(Cl)ccc2Cl)n1.O=C(O)/C=C\C(=O)O` [IRSOGLADINE MALEATE], the “Bacterial Biotransformation” value in series [1], in [2], in [3], in [4], in [5] and in series [6] was “Compound NOT metabolized” each time. For the same compound, the “Bacterial Biotransformation” value in [7], in [8], in series [9], in series [10], in series [11] and in [12] was “Compound NOT metabolized” in each case. The “Bacterial Biotransformation” value in [13], in [14], in series [15], in series [16], in series [17] and in series [18] was “Compound NOT metabolized” each time.

Regarding `O=C(O)CCc1nc(-c2ccccc2)c(-c2ccccc2)o1` [OXAPROZIN], the “Bacterial Biotransformation” value in series [1] is on record as “Compound NOT metabolized”; in [2], “Compound NOT metabolized”; in series [3], “Compound metabolized”; in series [4], “Compound metabolized”; in series [5], “Compound metabolized”; in [7], “Compound NOT metabolized”. Also, the “Bacterial Biotransformation” value in [8] is “Compound NOT metabolized”; in series [9], “Compound NOT metabolized”; in series [10] it was “Compound NOT metabolized”; in series [11] it was “Compound metabolized”; in [12] it was “Compound NOT metabolized”; in [13] it was “Compound NOT metabolized”. Moreover, the “Bacterial Biotransformation” value in series [14] was “Compound NOT metabolized”; in [15], “Compound metabolized”; in series [16] it was “Compound NOT metabolized”; in series [17] it was “Compound NOT metabolized”; in series [19], “Compound NOT metabolized”; in series [18], “Compound metabolized”.
